In US9834579B2, “Crystalline forms of s-acetyl glutathione, their preparations and uses in pharmaceutical and nutraceutical formulations” (Gnosis S.p.A., priority 2013, dated 2017):

How the values were obtained:
[1] = dissolution rate in water; type: physicochemical; settings: comparison of solid forms
[2] = accelerated stability test of solid forms at 50° C. for 6 months (European Pharmacopoeia); type: physicochemical; settings: for GSH / GSSG / SAG / Unknown impurities (single) / Unknown impurities (total): % area
Description: The stability of the various solid forms was tested as described in the European Pharmacopoeia (EP), by conducting accelerated stability tests at 50° C. for 6 months.

[3] = powder density / apparent density; type: physicochemical; settings: for Apparent density: product of the example after drying
[4] = heat and mechanical stress, conversion of one polymorph to the other; type: physicochemical; settings: heat and mechanical stresses
[5] = flowability of the powders; type: physicochemical; settings: comparison of crystalline forms
[6] = oral, seven healthy volunteers, doses of up to 3 g per dose; cited from earlier work
[7] = compared with GSH; cited from earlier work
[8] = system: fibroblasts originating from individuals suffering from a genetic glutathione synthetase deficiency; settings: addition to fibroblast cultures; cited from earlier work
human tumour cell lines = settings: some human tumour cell lines in vitro; cited from earlier work
[9] = system: cell levels of GSH impoverished by viral infections; settings: cells impoverished by viral infections, compared with GSH; cited from earlier work

Row | SMILES | SAG - assay value ([2]; 0 months) [%] | GSH ([2]; 0 months) [%] | GSSG ([2]; 0 months) [%] | SAG ([2]; 0 months) [%] | Unknown impurities (single) ([2]; 0 months) [%] | Unknown impurities (total) ([2]; 0 months) [%] | SAG - assay value ([2]; 1.5 months) [%] | GSH ([2]; 1.5 months) [%] | GSSG ([2]; 1.5 months) [%] | SAG ([2]; 1.5 months) [%] | Unknown impurities (single) ([2]; 1.5 months) [%] | Unknown impurities (total) ([2]; 1.5 months) [%] | SAG - assay value ([2]; 3 months) [%] | GSH ([2]; 3 months) [%] | GSSG ([2]; 3 months) [%] | SAG ([2]; 3 months) [%] | Unknown impurities (single) ([2]; 3 months) [%] | Unknown impurities (total) ([2]; 3 months) [%] | SAG - assay value ([2]; 4.5 months) [%] | GSH ([2]; 4.5 months) [%] | further results
1 | CC(=O)SC[C@H](NC(=O)CC[C@H](N)C(=O)O)C(=O)NCC(=O)O [Amorphous, S-acetyl glutathione] | 96.5 | 1.0 | 2.5 | 95.1 | 0.4 | 1.4 | 94.9 | 1.6 | 2.5 | 94.6 | 0.9 | 1.9 | 92.4 | 2.4 | 2.8 | 91.3 | 1.2 | 2.3 | 91.5 | 2.8 | dissolution rate ([1]; listed as amorphous form): dissolves more rapidly; GSSG ([2]; 4.5 months): 2.9%; SAG ([2]; 4.5 months): 90.4%; Unknown impurities (single) ([2]; 4.5 months): 1.3%; Unknown impurities (total) ([2]; 4.5 months): 2.7%; SAG - assay value ([2]; 6 months): 89.9%; GSH ([2]; 6 months): 2.5%; GSSG ([2]; 6 months): 3.9%; SAG ([2]; 6 months): 88.6%; Unknown impurities (single) ([2]; 6 months): 1.5%; Unknown impurities (total) ([2]; 6 months): 3.5%; stability of the solid form (comparison) ([2]; 6 months, data of Table 3): much less stable than the crystalline forms
2 | CC(=O)SC[C@H](NC(=O)CC[C@H](N)C(=O)O)C(=O)NCC(=O)O [Example 3, S-acetyl glutathione] | – | – | – | – | – | – | – | – | – | – | – | – | – | – | – | – | – | – | – | – | Apparent density [3]: 0.35 g/mL
3 | CC(=O)SC[C@H](NC(=O)CC[C@H](N)C(=O)O)C(=O)NCC(=O)O [Form A, S-acetyl glutathione] | 98.6 | 0.1 | 2.2 | 96.3 | 0.4 | 1.0 | 98.3 | 0.1 | 2.2 | 95.5 | 0.5 | 1.7 | 97.8 | 0.2 | 2.3 | 95.1 | 0.5 | 1.9 | 97.6 | 0.2 | conversion of one polymorph to the other [4]: not found; flowability of the powder [5]: better flowability; powder density [3]: 0.2 to 0.25 g/mL; Apparent density ([3]; listed as Example 1): 0.15 to 0.25 g/mL; GSSG ([2]; 4.5 months): 2.4%; SAG ([2]; 4.5 months): 94.7%; Unknown impurities (single) ([2]; 4.5 months): 0.7%; Unknown impurities (total) ([2]; 4.5 months): 2.0%; SAG - assay value ([2]; 6 months): 97.4%; GSH ([2]; 6 months): 0.3%; GSSG ([2]; 6 months): 2.4%; SAG ([2]; 6 months): 94.4%; Unknown impurities (single) ([2]; 6 months): 0.9%; Unknown impurities (total) ([2]; 6 months): 2.0%
4 | CC(=O)SC[C@H](NC(=O)CC[C@H](N)C(=O)O)C(=O)NCC(=O)O [Form B, S-acetyl glutathione] | 99.3 | 0.2 | 1.1 | 97.7 | 0.2 | 0.8 | 99.1 | 0.3 | 1.2 | 97.1 | 0.5 | 0.9 | 98.7 | 0.7 | 0.8 | 96.7 | 0.7 | 1.1 | 98.3 | 0.9 | conversion of one polymorph to the other [4]: not found; dissolution rate [1]: most rapid dissolution rate; powder density [3]: 0.4 g/mL; Apparent density ([3]; listed as Example 2): 0.25 to 0.40 g/mL; GSSG ([2]; 4.5 months): 1.1%; SAG ([2]; 4.5 months): 96.0%; Unknown impurities (single) ([2]; 4.5 months): 0.7%; Unknown impurities (total) ([2]; 4.5 months): 1.3%; SAG - assay value ([2]; 6 months): 98.1%; GSH ([2]; 6 months): 1.0%; GSSG ([2]; 6 months): 0.9%; SAG ([2]; 6 months): 95.7%; Unknown impurities (single) ([2]; 6 months): 0.8%; Unknown impurities (total) ([2]; 6 months): 2.0%
5 | N[C@@H](CCC(=O)N[C@@H](CS)C(=O)NCC(=O)O)C(=O)O [GSH, γ-L-glutamyl-L-cysteinylglycine] | – | – | – | – | – | – | – | – | – | – | – | – | – | – | – | – | – | – | – | – | increase in the blood levels of glutathione, cysteine and glutamate [6]: no significant increases
6 | CC(=O)SC[C@H](NC(=O)CC[C@H](N)C(=O)O)C(=O)NCC(=O)O [SAG, S-acetyl glutathione] | – | – | – | – | – | – | – | – | – | – | – | – | – | – | – | – | – | – | – | – | stability in the plasma [7]: more stable in the plasma; replenishment of the intracellular level of GSH [8]: able to replenish the intracellular level of GSH effectively; induction of apoptosis (non-GSH-dependent activity) (human tumour cell lines): induces apoptosis; replenishing the cell levels of GSH [9]: more effective than GSH
